Test results: patent US8883010B2, “Polymer composition with phytochemical and dialysis membrane formed from the polymer composition” (The University of Akron, priority 2008, dated 2014)
Entries after “also recorded” stand apart in the source; their conditions may differ.

How the values were obtained:
[1] = test system: reactive oxygen species (ROS) in neutrophils; assay: Modified DHR (dihydrorhodamine) assay of oxygen radical generation in PMA-stimulated whole blood; assay type: cell-based, human; conditions: for suppression of ROS levels (in words): pure antioxidant in DMSO, no membrane/polymer, 25-500 μg/ml
Procedure: In order to determine the effect of membranes and/or genistein on oxygen radical generation, the standard dihydrorhodamine (DHR) assay was modified as follows. The assay consisted of one positive control tube, several sample tubes and one negative control tube. The positive control tube contained 100 μl blood, 25 μl DHR, and 25 μl PMA; the total contents were made up to a total volume of 1 ml with PBS. The effect of oxygen radical generation is tested as follows, using the sample tube containing 100 μl blood, 25 μl DHR, 25 μl PMA and the appropriate sample (for example, unmodified membranes or pure genistein or genistein modified membranes). […] For the assay, two small circular samples (2×0.4 cm^2) were punched out from the cast films and placed inside the test tubes. After adding the membrane, the entire contents were incubated at 37° C. for 3 h (to simulate hemodialysis conditions) while being subjected to continuous shaking. After 3 h of incubation, the membrane samples were removed from the blood and agitated with 1 ml of PBS in order to dislodge the cells that were attached to the membrane. In the case of pure genistein (i.e., no membrane), the samples were prepared by dissolving genistein in DMSO over a wide range of concentration (25-500 μg/ml). The negative control tube contained 100 μl blood, 25 μl DHR, and the sample.
In order to normalize the data obtained from different set of experiments, the following formula was employed to express ROS level in percentage,
where the positive control represent 100% ROS and the negative control represent 0% ROS. The x, y, and z parameters represent the mean fluorescence signal obtained from the positive control, the negative control, and the samples, respectively.

[2] = test system: peripheral blood mononuclear cells (PBMC); assay: Cell viability (cytotoxicity) assay with 7-AAD dye and flow cytometry; assay type: cell-based; conditions: pure genistein, 25-500 μg/ml
Procedure: Cell viability assays were conducted to determine the effect of unmodified membranes, pure genistein and genistein modified membranes on whole blood. A nucleic acid dye, 7-Amino-actinomycin D (7-AAD), (BD-Via-Probe™ from BD Bioscience, CA) was used as a viability probe, which is based on uptake of 7-AAD. 7-AAD is a nucleic acid dye, which is designed in such a way that it cannot enter live cells. Fresh blood mixed with the dye was used as a negative control, whereas blood incubated with the membrane and/or genistein served as the experimental samples.
To perform the assays, 100 μl of fresh blood was pipetted into separate polypropylene tubes and mixed with 2 ml of ammonium chloride lysis buffer solution (containing 8.26 g ammonium chloride, 1 g potassium bicarbonate, and 0.037 g ethylenediamine-tetraacetic acid dissolved in 1 liter deionized water). The tubes were allowed to stand at room temperature for 10 min during which most of the red blood cells were lysed. The tubes were centrifuged at room temperature for 5 min at 1,800 rpm. […] The cells were resuspended with 500 μl of PBS and the cell suspension was analyzed using a flow cytometer (EPICS® XL-MCL™, Beckman Coulter, Calif., USA) equipped with System II™ software. […] The fluorescence signal from the dead cells was measured on the FL3 red channel (650 nm) with the flow cytometer.

O=c1c(-c2ccc(O)cc2)coc2cc(O)cc(O)c12 [genistein, 5,7-dihydroxy-3-(4-hydroxyphenyl)chromen-4-one]
suppression of ROS levels (in words) [1]: dose-dependent reduction of ROS level; also recorded: suppress ROS levels significantly; also recorded: Suppression is greater than for Vitamin E | reduction of the oxygen radicals ([1]; pure genistein in DMSO, no membrane): about 50% | cytotoxicity to PBMC [2]: non-cytotoxic

Vitamin E
suppression of ROS levels (in words) [1]: Suppression is greater than for Vitamin E
